Measurements: US10239835B2, “N-alkylaryl-5-oxyaryl-octahydro-cyclopenta[c]pyrrole negative allosteric modulators of NR2B” (Luc Therapeutics, Inc., priority 2014, dated 2019)
pIC50: −log10 of the molar value. Read-outs that look alike come from different tables or passages of the source.

Tests used:
[1] = molecular target: HEK293 cells expressing NR1/NR2B (Homo sapiens (Human), UniProt Q13224); test: NR2B NAM Assay (FDSS Ca2+ influx cell assay); format: cell-based
Experimental: (§1) Cell Culture and plating: HEK293 cells expressing NR1/NR2B (Chantest, Cleveland, Ohio) were grown to 70-80% confluency as an adherent monolayer in standard tissue culture flasks at 37° C., 5% CO2 per supplier's instructions. NR2B expression was induced by incubation with 0.3-0.4 μg/ml tetracycline in the presence of 4 mM ARL-15896 for 18-24 hours under the same growth conditions, then transferred to 30° C. for another 3-5 hours.
(§2) After induction, cell culture medium was removed and cells were rinsed once with Ca^2+ and Mg^2+-free Dulbecco's phosphate buffered saline. Cells were then removed from the flask using TrypLE™ Express (Life Technologies) according to the manufacturer's instructions and collected to 50 ml centrifuge tubes. Following two washes in Ca^2+/Mg^2+-free HBSS with 20 mM HEPES (HHnoCa), cells were counted and viability assessed using trypan blue. To load cells with Ca^2+-sensitive dye, they were resuspended in fluo-8 plus Component B (AAT Bioquest Products) diluted in HHnoCa and incubated 15 minutes at 37° C., followed by 30 minutes at room temp (in dark). Cells were then washed and resuspended in HHnoCa to remove extracellular dye and plated in 384-well plates (Falcon, uncoated) at 20,000-30,000 cells/well in a final volume of 25 μl/well.
(§3) FDSS Assay: To each well of the plate, 10 μL test compound, control (MK801) or HHnoCa buffer was added at different concentrations to yield final concentrations of 0.001, 0.003, 0.010, 0.030, 0.100, 0.300, 1.000, 3.000, 10.000, or 30.000 uM final concentration of DMSO of 0.1%. Following 10 minutes pre-incubation in the dark, plates are loaded onto the Hamamatsu FDSS 6000. After collecting baseline fluorescence images, 3 μM glutamate, 3 μM glycine, and 1 mM Ca^2+ in HHnoCa buffer is added to each well, and Ca^2+ is recorded for 3 minutes. Data were processed by computing ratio of fluorescence at the end of data collection to baseline fluorescence to assess degree of Ca^2+ influx inhibition relative to that observed in MK801.
(§4) Table 8 below provides activity of each compound according to the legend that “++++” indicates inhibition at a concentration<100 nM; “+++” indicates inhibition at a concentration between 100 nM and 1 μM of the disclosed compound; “++” indicates inhibition at a concentration of from 1 μM to 10 μM; and “+” indicates inhibition at a concentration>10 μM.

[2] = molecular target: HEK293 cells expressing NR1/NR2B (Homo sapiens (Human), UniProt Q05586+Q13224); test: NR2B NAM Assay (FDSS Ca2+ influx cell assay); format: cell-based; settings: NR2B NAM assay, class of inhibitory concentration; read-out: Activity Category
Chain of HEK293 cells expressing NR1/NR2B (Homo sapiens (Human), UniProt Q05586+Q13224) (Q13224 27-1484, other chains not shown): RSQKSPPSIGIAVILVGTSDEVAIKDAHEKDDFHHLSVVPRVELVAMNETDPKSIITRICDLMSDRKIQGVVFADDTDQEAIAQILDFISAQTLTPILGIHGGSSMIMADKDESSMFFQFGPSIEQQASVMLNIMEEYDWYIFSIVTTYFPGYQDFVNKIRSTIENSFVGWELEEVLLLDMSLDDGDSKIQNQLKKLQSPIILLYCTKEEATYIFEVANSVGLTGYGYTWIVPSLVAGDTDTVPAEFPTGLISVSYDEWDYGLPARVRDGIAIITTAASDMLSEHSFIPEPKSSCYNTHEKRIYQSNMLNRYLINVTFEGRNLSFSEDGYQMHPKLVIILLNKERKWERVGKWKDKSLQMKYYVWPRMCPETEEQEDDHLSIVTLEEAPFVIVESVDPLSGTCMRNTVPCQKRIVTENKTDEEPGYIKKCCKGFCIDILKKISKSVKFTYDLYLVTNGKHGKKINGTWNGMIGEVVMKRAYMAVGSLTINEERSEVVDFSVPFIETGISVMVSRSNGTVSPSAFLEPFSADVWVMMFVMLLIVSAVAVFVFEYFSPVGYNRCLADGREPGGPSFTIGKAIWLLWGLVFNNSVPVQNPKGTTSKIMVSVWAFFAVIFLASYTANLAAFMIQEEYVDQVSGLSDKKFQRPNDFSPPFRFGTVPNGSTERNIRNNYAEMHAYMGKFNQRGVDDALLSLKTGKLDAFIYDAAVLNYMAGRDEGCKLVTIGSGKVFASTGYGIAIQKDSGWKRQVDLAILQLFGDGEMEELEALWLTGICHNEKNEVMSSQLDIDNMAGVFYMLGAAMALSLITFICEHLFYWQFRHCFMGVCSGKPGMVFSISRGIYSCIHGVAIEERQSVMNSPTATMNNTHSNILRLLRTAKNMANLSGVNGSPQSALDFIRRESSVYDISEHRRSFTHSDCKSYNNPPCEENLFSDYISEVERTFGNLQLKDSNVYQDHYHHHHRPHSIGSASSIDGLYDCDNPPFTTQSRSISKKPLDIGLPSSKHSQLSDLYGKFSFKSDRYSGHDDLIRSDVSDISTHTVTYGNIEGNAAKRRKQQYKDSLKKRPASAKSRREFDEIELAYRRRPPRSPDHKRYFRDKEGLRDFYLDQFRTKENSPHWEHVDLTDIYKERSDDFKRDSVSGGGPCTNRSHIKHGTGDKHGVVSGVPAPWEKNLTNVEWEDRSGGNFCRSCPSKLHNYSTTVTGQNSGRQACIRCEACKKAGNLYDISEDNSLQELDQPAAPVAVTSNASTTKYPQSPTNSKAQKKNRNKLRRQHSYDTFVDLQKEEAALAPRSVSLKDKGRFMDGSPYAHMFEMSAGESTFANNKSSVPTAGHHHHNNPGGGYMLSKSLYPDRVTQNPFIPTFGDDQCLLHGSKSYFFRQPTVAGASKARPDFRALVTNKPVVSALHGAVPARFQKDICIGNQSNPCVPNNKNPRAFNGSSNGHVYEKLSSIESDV
Experimental: as §1, §2, §3, §4

[3] = Ca2+ influx inhibition relative to MK801, 3 μM glutamate, 3 μM glycine, 1 mM Ca2+, read-out: NR2B NAM IC50

Chain of HEK293 cells expressing NR1/NR2B (Homo sapiens (Human), UniProt Q13224) (Q13224 27-1484, other chains not shown): as above

SMILES	pIC50 [1, 3]	pIC50 [2]	pIC50 ([1]; NR2B NAM assay, class of inhibitory concentration, read-out: Activity Category)
O=C(CN1C[C@H]2C[C@H](Oc3ccc(F)c(F)c3)C[C@H]2C1)c1ccc(O)cc1	7.21	> 7.00	–
Oc1ccc(C(O)CN2C[C@H]3C[C@H](Oc4ccc(F)c(F)c4)C[C@H]3C2)cc1 (stereo partly shown)	7.85	> 7.00	–
O=C(CN1C[C@H]2C[C@H](Oc3ccc(F)c(F)c3)C[C@H]2C1)c1ccc(O)cn1	5.90	5.00 to 6.00	–
O=C(CN1C[C@H]2C[C@H](Oc3ccc(F)cc3)C[C@H]2C1)c1ccc(O)cn1	6.16	6.00 to 7.00	–
Oc1ccc(C(O)CN2C[C@H]3C[C@H](Oc4ccc(F)c(F)c4)C[C@H]3C2)nc1 (stereo partly shown)	7.75	> 7.00	–
Oc1ccc(C(O)CN2C[C@H]3C[C@@H](Oc4ccc(F)cc4)C[C@H]3C2)cc1F (stereo partly shown)	7.52	> 7.00	–
Cc1ccc(O[C@H]2C[C@@H]3CN(CC(=O)c4ccc(O)c(F)c4)C[C@@H]3C2)cn1	5.63	5.00 to 6.00	–
Cc1ccc(O[C@H]2C[C@@H]3CN(CC(O)c4ccc(O)c(F)c4)C[C@@H]3C2)cn1 (stereo partly shown)	7.05	> 7.00	–
COc1ccc(O[C@@H]2C[C@@H]3CN(CC(O)c4ccc(O)cc4)C[C@@H]3C2)cc1 (stereo partly shown)	6.95	6.00 to 7.00	–
COc1ccc(O[C@@H]2C[C@@H]3CN(CC(=O)c4ccc(O)cn4)C[C@@H]3C2)cc1	5.15	5.00 to 6.00	–
Oc1ccc(C(O)CN2C[C@H]3C[C@@H](Oc4ccc(F)cc4)C[C@H]3C2)cc1 (stereo partly shown)	7.75	> 7.00	–
O=C(CN1C[C@H]2C[C@H](Oc3ccncc3)C[C@H]2C1)c1ccc(O)cc1	5.56	5.00 to 6.00	–
Oc1ccc(C(O)CN2C[C@H]3C[C@H](Oc4ccncc4)C[C@H]3C2)cc1 (stereo partly shown)	5.35	5.00 to 6.00	–
Cc1ncccc1O[C@H]1C[C@@H]2CN(CC(=O)c3ccc(O)cc3)C[C@@H]2C1	6.87	6.00 to 7.00	–
Cc1ncccc1O[C@H]1C[C@@H]2CN(CC(O)c3ccc(O)cc3)C[C@@H]2C1 (stereo partly shown)	6.73	6.00 to 7.00	–
COc1ccc(O[C@H]2C[C@@H]3CN(CC(=O)c4ccc(O)c(F)n4)C[C@@H]3C2)cc1	5.00	< 5.00	–
COc1ccc(O[C@H]2C[C@@H]3CN(CC(O)c4ccc(O)c(F)n4)C[C@@H]3C2)cc1 (stereo partly shown)	5.48	5.00 to 6.00	–
O=C(CN1C[C@H]2C[C@@H](Oc3cccnc3)C[C@H]2C1)c1ccc(O)cc1	5.28	5.00 to 6.00	–
Oc1ccc(C(O)CN2C[C@H]3C[C@@H](Oc4cccnc4)C[C@H]3C2)cc1 (stereo partly shown)	5.10	5.00 to 6.00	–
N#Cc1cccc(O[C@H]2C[C@@H]3CN(CC(=O)c4ccc(O)cn4)C[C@@H]3C2)c1	5.00	< 5.00	–
O=C(CN1C[C@H]2C[C@H](Oc3cccc4cnccc34)C[C@H]2C1)c1ccc(O)cc1	6.39	6.00 to 7.00	–
Oc1ccc(C(O)CN2C[C@H]3C[C@H](Oc4cccc5cnccc45)C[C@H]3C2)cc1 (stereo partly shown)	6.72	6.00 to 7.00	–
COc1ccc(O[C@@H]2C[C@@H]3CN(CC(O)c4ccc(O)cn4)C[C@@H]3C2)cc1 (stereo partly shown)	6.36	6.00 to 7.00	–
Oc1ccc(C(O)CN2C[C@H]3C[C@@H](Oc4ccc(F)c(F)c4)C[C@H]3C2)nc1 (stereo partly shown)	7.42	> 7.00	–
N#Cc1ccc(O[C@@H]2C[C@@H]3CN(CC(=O)c4ccc(O)cn4)C[C@@H]3C2)cc1	5.00	< 5.00	–

SMILES	pIC50 [1, 3]	pIC50 [2]	pIC50 ([1]; NR2B NAM assay, class of inhibitory concentration, read-out: Activity Category)
O=C(CN1C[C@H]2C[C@@H](Oc3ccc(F)c(F)c3)C[C@H]2C1)c1ccc(O)cc1	7.16	> 7.00	–
O=C(CN1C[C@H]2C[C@H](Oc3ccccc3)C[C@H]2C1)c1ccc(O)cc1	7.97	> 7.00	–
Oc1ccc(C(O)CN2C[C@H]3C[C@H](Oc4ccccc4)C[C@H]3C2)cc1 (stereo partly shown)	8.22	> 7.00	–
O=C(CN1C[C@H]2C[C@H](Oc3cccnc3F)C[C@H]2C1)c1ccc(O)cn1	5.00	< 5.00	–
COc1ncccc1O[C@H]1C[C@@H]2CN(CC(=O)c3ccc(O)cc3)C[C@@H]2C1	5.00	< 5.00	–
COC(CN1C[C@H]2C[C@H](Oc3ccc(F)cc3)C[C@H]2C1)c1ccc(OCc2ccccc2)cc1 (stereo partly shown)	5.00	< 5.00	–
Oc1ccc(C(O)CN2C[C@H]3C[C@H](Oc4cccnc4F)C[C@H]3C2)nc1 (stereo partly shown)	7.68	> 7.00	–
Oc1ccc(C(O)CN2C[C@H]3C[C@@H](Oc4ccc(F)c(F)c4)C[C@H]3C2)cc1 (stereo partly shown)	7.09	> 7.00	–
N#Cc1ccc(O[C@@H]2C[C@@H]3CN(CC(O)c4ccc(O)cn4)C[C@@H]3C2)cc1 (stereo partly shown)	5.00	< 5.00	–
O=C(CN1C[C@H]2C[C@H](Oc3ccccc3)C[C@H]2C1)c1ccc(O)cn1	5.20	5.00 to 6.00	–
O=C(CN1C[C@H]2C[C@H](Oc3cccnc3F)C[C@H]2C1)c1ccc(O)c(F)c1	5.00	< 5.00	–
Oc1ccc(C(O)CN2C[C@H]3C[C@H](Oc4ccccc4F)C[C@H]3C2)cc1 (stereo partly shown)	8.35	> 7.00	–
O=C(CN1C[C@H]2C[C@H](Oc3ccccc3F)C[C@H]2C1)c1ccc(O)cc1	7.77	> 7.00	–
Oc1ccc(C(O)CN2C[C@H]3C[C@H](Oc4ccccc4)C[C@H]3C2)nc1 (stereo partly shown)	8.24	> 7.00	–
Oc1ccc(C(O)CN2C[C@H]3C[C@H](Oc4cccnc4F)C[C@H]3C2)cc1F (stereo partly shown)	7.66	> 7.00	–
O=C(CN1C[C@H]2C[C@H](Oc3ccc(F)nc3)C[C@H]2C1)c1ccc(O)cc1	7.26	> 7.00	–
O=C(CN1C[C@H]2C[C@H](Oc3ccc(F)nc3)C[C@H]2C1)c1ccc(O)cn1	5.00	< 5.00	–
Oc1ccc(C(O)CN2C[C@H]3C[C@H](Oc4ccc(F)nc4)C[C@H]3C2)cc1 (stereo partly shown)	7.13	> 7.00	–
O=C(CN1C[C@H]2C[C@H](Oc3ccccc3F)C[C@H]2C1)c1ccc(O)cn1	6.66	6.00 to 7.00	–
Oc1ccc(C(O)CN2C[C@H]3C[C@H](Oc4ccc(F)nc4)C[C@H]3C2)nc1 (stereo partly shown)	6.95	6.00 to 7.00	–
O=C(CN1C[C@H]2C[C@H](Oc3ccc(F)cc3F)C[C@H]2C1)c1ccc(O)cn1	5.94	5.00 to 6.00	–
O=C(CN1C[C@H]2C[C@H](Oc3c(F)cccc3F)C[C@H]2C1)c1ccc(O)cn1	5.97	5.00 to 6.00	–
O=C(CN1C[C@H]2C[C@H](Oc3ccc(F)cc3F)C[C@H]2C1)c1ccc(O)cc1	7.39	> 7.00	–
Cc1ccc(O[C@H]2C[C@@H]3CN(CC(=O)c4ccc(O)cn4)C[C@@H]3C2)c(F)c1	6.65	6.00 to 7.00	–
OC(CN1C[C@H]2C[C@H](Oc3ccc(F)cc3)C[C@H]2C1)c1cn[nH]c1 (stereo partly shown) [drawing 268]	5.70	–	5.00 to 6.00
